Test results as given in ChEMBL document CHEMBL1201861, “Genomics of Drug Sensitity in Cancer screening data, Wellcome Trust Sanger Institute”.

Experiments:
Test in all cases: cells
Type in all cases: functional, cell-based, Homo sapiens
HT-144 = details: Homo sapiens, HT-144
Description: SANGER: Inhibition of human HT-144 cell growth in a cell viability assay.

KGN = details: Homo sapiens, KGN;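 also: growth inhibition of KGN cells, read out with a cell viability assay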
Description: SANGER: Inhibition of human KGN cell growth in a cell viability assay.

CTB-1 = details: Homo sapiens, CTB-1
Description: SANGER: Inhibition of human CTB-1 cell growth in a cell viability assay.

COLO-824 = details: Homo sapiens, COLO-824
Description: SANGER: Inhibition of human COLO-824 cell growth in a cell viability assay.

LB2518-MEL = details: Homo sapiens, LB2518-MEL;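 also: growth inhibition of human LB2518-MEL cells, measured with a cell viability assay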
Description: SANGER: Inhibition of human LB2518-MEL cell growth in a cell viability assay.

SF-126 = details: Homo sapiens, SF-126;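 also: growth inhibition of human SF126 cells, read out with a cell viability assay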
Description: SANGER: Inhibition of human SF126 cell growth in a cell viability assay.

CAS-1 = details: Homo sapiens, CAS-1;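 also: growth inhibition of CAS-1 cells, measured with a cell viability assay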
Description: SANGER: Inhibition of human CAS-1 cell growth in a cell viability assay.

D-263MG = details: Homo sapiens, D-263MG
Description: SANGER: Inhibition of human D-263MG cell growth in a cell viability assay.

MS-1 = details: Homo sapiens, MS-1;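 also: growth inhibition of MS-1 cells, read out by cell viability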
Description: SANGER: Inhibition of human MS-1 cell growth in a cell viability assay.

LU-134-A = details: Homo sapiens, LU-134-A
Description: SANGER: Inhibition of human LU-134-A cell growth in a cell viability assay.

EOL1 = details: Homo sapiens, EOL1;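 also: growth inhibition of EoL-1 cells, read out by a cell viability assay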
Description: SANGER: Inhibition of human EoL-1-cell cell growth in a cell viability assay.

SJSA-1 = details: Homo sapiens, SJSA-1;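 also: growth inhibition of human SJSA-1 cells, read out through a cell viability measurement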
Description: SANGER: Inhibition of human SJSA-1 cell growth in a cell viability assay.

MFH-ino = details: Homo sapiens, MFH-ino;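 also: growth inhibition of human MFH-ino cells, read out by a cell viability assay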
Description: SANGER: Inhibition of human MFH-ino cell growth in a cell viability assay.

A704 = details: Homo sapiens, A704;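 also: growth inhibition of human A704 cells, read out with a cell viability assay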
Description: SANGER: Inhibition of human A704 cell growth in a cell viability assay.

TE-6 = details: Homo sapiens, TE-6;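 also: growth inhibition of TE-6 cells, read out with a cell viability assay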
Description: SANGER: Inhibition of human TE-6 cell growth in a cell viability assay.

TGW = details: Homo sapiens, TGW;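 also: growth inhibition of human TGW cells, read out with a cell viability assay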
Description: SANGER: Inhibition of human TGW cell growth in a cell viability assay.

NCI-H526 = details: Homo sapiens, NCI-H526;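 also: growth inhibition of the human NCI-H526 cell line, measured by a cell viability assay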
Description: SANGER: Inhibition of human NCI-H526 cell growth in a cell viability assay.

EW-16 = details: Homo sapiens, EW-16;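 also: growth inhibition of human EW-16 cells, read out as cell viability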
Description: SANGER: Inhibition of human EW-16 cell growth in a cell viability assay.

LAN-6 = details: Homo sapiens, LAN-6;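 also: growth inhibition of LAN-6 cells, determined with a cell viability assay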
Description: SANGER: Inhibition of human LAN-6 cell growth in a cell viability assay.

SNU-C2B = details: Homo sapiens, SNU-C2B;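 also: cell viability readout used to measure compound-driven suppression of SNU-C2B cell proliferation, IC50 marking half-maximal growth inhibition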
Description: SANGER: Inhibition of human SNU-C2B cell growth in a cell viability assay.

KY821 = details: Homo sapiens, KY821;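 also: growth inhibition of human KY821 cells, read out by a cell viability assay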
Description: SANGER: Inhibition of human KY821 cell growth in a cell viability assay.

BT-474 = details: Homo sapiens, BT-474
Description: SANGER: Inhibition of human BT-474 cell growth in a cell viability assay.

Becker = details: Homo sapiens, Becker;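 also: growth inhibition of Becker cells, read out with a cell viability assay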
Description: SANGER: Inhibition of human Becker cell growth in a cell viability assay.

SK-N-FI = details: Homo sapiens, SK-N-FI;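 also: cell viability assay measuring growth inhibition of human SK-N-FI cells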
Description: SANGER: Inhibition of human SK-N-FI cell growth in a cell viability assay.

VA-ES-BJ = details: Homo sapiens, VA-ES-BJ;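 also: growth inhibition of the VA-ES-BJ cell line, read out by a cell viability assay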
Description: SANGER: Inhibition of human VA-ES-BJ cell growth in a cell viability assay.

ES6 = details: Homo sapiens, ES6;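 also: growth inhibition of human ES6 cells, read out with a cell viability assay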
Description: SANGER: Inhibition of human ES6 cell growth in a cell viability assay.

SNU-5 = details: Homo sapiens, SNU-5;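 also: cell viability readout used to measure growth inhibition in human NCI-SNU-5 cells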
Description: SANGER: Inhibition of human NCI-SNU-5 cell growth in a cell viability assay.

RXF 393 = details: Homo sapiens, RXF 393;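 also: growth inhibition of human RXF 393 cells, read out with a cell viability assay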
Description: SANGER: Inhibition of human RXF393 cell growth in a cell viability assay.

JAR = details: Homo sapiens, JAR;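 also: growth inhibition of human JAR cells determined with a cell viability assay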
Description: SANGER: Inhibition of human JAR cell growth in a cell viability assay.

HEL = details: Homo sapiens, HEL;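 also: growth inhibition of HEL cells, read out with a cell viability assay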
Description: SANGER: Inhibition of human HEL cell growth in a cell viability assay.

CTV-1 = details: Homo sapiens, CTV-1;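 also: growth inhibition of the cell line, read out with a cell viability assay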
Description: SANGER: Inhibition of human CTV-1 cell growth in a cell viability assay.

HCC2157 = details: Homo sapiens, HCC2157;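 also: growth inhibition of the cancer cell line, read out as cell viability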
Description: SANGER: Inhibition of human HCC2157 cell growth in a cell viability assay.

C8166 = details: Homo sapiens, C8166;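 also: growth inhibition of human C8166 cells measured by a cell viability assay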
Description: SANGER: Inhibition of human C8166 cell growth in a cell viability assay.

LU-139 = details: Homo sapiens, LU-139
Description: SANGER: Inhibition of human LU-139 cell growth in a cell viability assay.

KM12 = details: Homo sapiens, KM12;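 also: KM12 cell growth inhibition, read out with a cell viability assay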
Description: SANGER: Inhibition of human KM12 cell growth in a cell viability assay.

A388 = details: Homo sapiens, A388;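 also: growth inhibition of human A388 cells, read out with a cell viability assay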
Description: SANGER: Inhibition of human A388 cell growth in a cell viability assay.

SCH = details: Homo sapiens, SCH;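 also: growth inhibition of human SCH cells, read out in a cell viability assay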
Description: SANGER: Inhibition of human SCH cell growth in a cell viability assay.

Calu-6 = details: Homo sapiens, Calu-6;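 also: growth of human Calu-6 cells, read out by a cell viability assay, IC50 marking inhibition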
Description: SANGER: Inhibition of human Calu-6 cell growth in a cell viability assay.

COLO-320-HSR = details: Homo sapiens, COLO-320-HSR;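 also: growth inhibition of COLO-320-HSR cells, determined with a cell viability assay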
Description: SANGER: Inhibition of human COLO-320-HSR cell growth in a cell viability assay.

no-11 = details: Homo sapiens;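 also: growth inhibition of human NO-11 cells, read out with a cell viability assay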
Description: SANGER: Inhibition of human no-11 cell growth in a cell viability assay.

ALL-PO = details: Homo sapiens, ALL-PO;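 also: growth inhibition of ALL-PO cells, read out by a cell viability assay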
Description: SANGER: Inhibition of human ALL-PO cell growth in a cell viability assay.

HCC1187 = details: Homo sapiens, HCC1187;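 also: growth inhibition of HCC1187 cells, read out with a cell viability assay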
Description: SANGER: Inhibition of human HCC1187 cell growth in a cell viability assay.

A253 cell line = details: Homo sapiens, A253;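 also: growth inhibition of A253 cells, read out with a cell viability assay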
Description: SANGER: Inhibition of human A253 cell growth in a cell viability assay.

PSN1 = details: Homo sapiens, PSN1;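 also: suppression of growth of human PSN1 cells, read out by a cell viability assay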
Description: SANGER: Inhibition of human PSN1 cell growth in a cell viability assay.

NMC-G1 = details: Homo sapiens, NMC-G1;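 also: growth inhibition of the NMC-G1 cell line, measured with a cell viability read-out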
Description: SANGER: Inhibition of human NMC-G1 cell growth in a cell viability assay.

SNU1 = details: Homo sapiens, SNU1;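 also: growth inhibition of human NCI-SNU-1 cells, measured with a cell viability assay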
Description: SANGER: Inhibition of human NCI-SNU-1 cell growth in a cell viability assay.

HCC2218 = details: Homo sapiens, HCC2218;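 also: cell viability assay read-out, with IC50 given as the concentration that inhibits growth of the cell line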
Description: SANGER: Inhibition of human HCC2218 cell growth in a cell viability assay.

NCI-H1304 = details: Homo sapiens, NCI-H1304;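 also: growth inhibition of the cancer cell line, measured in a cell viability assay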
Description: SANGER: Inhibition of human NCI-H1304 cell growth in a cell viability assay.

TE-11 = details: Homo sapiens, TE-11;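 also: growth inhibition of human TE-11 cells, read out by a cell viability assay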
Description: SANGER: Inhibition of human TE-11 cell growth in a cell viability assay.

NCI-H2126 = details: Homo sapiens, NCI-H2126;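 also: growth inhibition of the cancer cell line, determined with a cell viability readout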
Description: SANGER: Inhibition of human NCI-H2126 cell growth in a cell viability assay.

OCCCNc1cc(-c2ccnc(Nc3cccc(Cl)c3)n2)ccn1
IC50 (HT-144): 20.6 nM
IC50 (KGN): 10.5 nM
IC50 (CTB-1): 153 nM
IC50 (COLO-824): > 256 nM
IC50 (LB2518-MEL): > 256 nM
IC50 (SF-126): 134 nM
IC50 (CAS-1): > 256 nM
IC50 (D-263MG): > 256 nM
IC50 (MS-1): 196 nM
IC50 (LU-134-A): 123 nM
IC50 (EOL1): > 256 nM
IC50 (SJSA-1): 60.7 nM
IC50 (MFH-ino): 80.7 nM
IC50 (A704): > 256 nM
IC50 (TE-6): > 256 nM
IC50 (TGW): 76.9 nM
IC50 (NCI-H526): > 256 nM
IC50 (EW-16): 32.8 nM
IC50 (LAN-6): 149 nM
IC50 (SNU-C2B): 104 nM
IC50 (KY821): 90.5 nM
IC50 (BT-474): > 256 nM
IC50 (Becker): 47.9 nM
IC50 (SK-N-FI): > 256 nM
IC50 (VA-ES-BJ): 41.6 nM
IC50 (ES6): 8.78 nM
IC50 (SNU-5): > 256 nM
IC50 (RXF 393): 37 nM
IC50 (JAR): 81.8 nM
IC50 (HEL): 114 nM
IC50 (CTV-1): 66 nM
IC50 (HCC2157): 206 nM
IC50 (C8166): > 256 nM
IC50 (LU-139): 131 nM
IC50 (KM12): 124 nM
IC50 (A388): 47.7 nM
IC50 (SCH): > 256 nM
IC50 (Calu-6): > 256 nM
IC50 (COLO-320-HSR): 82.9 nM
IC50 (no-11): 29.3 nM
IC50 (ALL-PO): 80 nM
IC50 (HCC1187): > 256 nM
IC50 (A253 cell line): 64.9 nM
IC50 (PSN1): 15.2 nM
IC50 (NMC-G1): 32.3 nM
IC50 (SNU1): > 256 nM
IC50 (HCC2218): > 256 nM
IC50 (NCI-H1304): 104 nM
IC50 (TE-11): 34.2 nM
IC50 (NCI-H2126): > 256 nM
